In data set [1] the test system is human prostate cancer cell line. The experiment in a line: Prostate cancer cell viability after 24 h incubation (FIG. 5, FIG. 7). The class given is cell-based. Here is the method: A human prostate cancer cell line was incubated with the indicated concentration of DUB inhibitor for 24 hours, and viability was then measured. […] A human prostate cancer cell line was incubated with the indicated concentration of DUB inhibitor for 24 hours, and viability was then measured. […] A human prostate cancer cell line was incubated with the indicated concentration of DUB inhibitor for 24 hours, and viability was then measured.

For data set [2], the system named is human non-small cell lung cancer (NSCLC) lines. The experiment in a line: NSCLC cell line viability after 24 h incubation (FIG. 2). The class given is cell-based. Here is the method: The indicated human non-small cell lung cancer (NSCLC) lines were incubated with the indicated concentrations of the DUB inhibitor (019A) for twenty-four hours, and cell viability was measured. […] The indicated human non-small cell lung cancer (NSCLC) lines were incubated with the indicated concentrations of the DUB inhibitor (019A) for twenty-four hours, and cell viability was measured. […] Specifically, the NSCLC line H1650, which is driven by a constitutively-activated EGFR, was treated with the indicated concentrations of the PAN-DUB inhibitor SJB-019A and/or the kinase inhibitor Gefitinib. After 24 hours, cells were lysed and the total cellular proteins were electrophoresed by standard PAGE methods. Proteins were immunoblotted and probed with commercially available polyclonal antisera to EGFR or Tubulin. Conclusion: the PAN-DUB inhibitor promotes the degradation of the EGFR, at least in part, by inhibition of USP8 which is expressed in these cells. The dose of the inhibitor that reduce the viability of the NSCLC (less than 0.5 μm, see FIG. 2) correlates with the amount of drug required to degrade EGFR (between 0.2-0.5 μm).

The test system of a further data set is Cyclin D1. The data set is described as follows: Cyclin D1 degradation immunoblot in prostate cancer cell line (FIG. 6, FIG. 8). Conditions: 24 h. It counts as cell-based, human. Here is the method:
(§1) Specifically, a human prostate cancer cell line was exposed to the indicated concentrations of PAN-DUB inhibitor, 019A, for 24 hours. Thereafter, cells were lysed, and total cellular proteins were electrophoresed and immunoblotted. Proteins were probed with anti-USP2, anti-Cyclin D1, and anti-vinculin. […] Specifically, a human prostate cancer cell line was exposed to the indicated concentrations of PAN-DUB inhibitor, 019A, for 24 hours. Thereafter, cells were lysed, and total cellular proteins were electrophoresed and immunoblotted. Proteins were probed with anti-USP2, anti-Cyclin D1, and anti-tubulin. […] Specifically, a human prostate cancer cell line was exposed to the indicated concentrations of PAN-DUB inhibitor, 019A, for 24 hours. Thereafter, cells were lysed, and total cellular proteins were electrophoresed and immunoblotted. Proteins were probed with anti-USP2, anti-Cyclin D1, and anti-Tubulin antibodies or anti-vinculin antibodies. Conclusion: the PAN-DUB inhibitor promotes the dose-dependent degradation of Cyclin D1, consistent with the dose-dependent killing of the cells by the drug. The dose of the inhibitor that reduce the viability of the prostate cancer cells (about 0.5 to 0.8 μm, see FIG. 5 and FIG. 7) correlates with the amount of drug required to degrade cyclin D1 (about 0.5 to 0.8 μm).
A general note: In western blotting, separated proteins are transferred to a membrane and probed.

A further data set concerns the target T1, USP12 (Homo sapiens, UniProt O75317).
T1 construct: cells were lysed, and total cellular proteins were electrophoresed and immunoblotted; endogenous in cells
The experiment in a line: USP12 protein immunoblot in prostate cancer cell line (FIG. 9). It counts as cell-based. Conditions: 24 h. Here is the method: (§2) Specifically, a human prostate cancer cell line was exposed to the indicated concentrations of PAN-DUB inhibitor, 019A, for 24 hours. Thereafter, cells were lysed, and total cellular proteins were electrophoresed and immunoblotted. Proteins were probed with anti-USP12, anti-AR, and anti-Tubulin antibodies. […] Specifically, a human prostate cancer cell line was exposed to the indicated concentrations of PAN-DUB inhibitor, 019A, for 24 hours. Thereafter, cells were lysed, and total cellular proteins were electrophoresed and immunoblotted. Proteins were probed with anti-USP12, anti-AR, and anti-Tubulin antibodies. Conclusion: the PAN-DUB inhibitor promotes the dose-dependent degradation of AR, consistent with the dose-dependent killing of the cells by the drug. The dose of the inhibitor that reduce the viability of the prostate cancer cells (about 0.5 to 0.8 μm, see FIG. 5 and FIG. 7) correlates with the amount of drug required to degrade AR (about 0.6 to 0.8 μm).

Data set [3] is described as follows: Pharmacokinetics of 019A in mice (FIG. 1). Conditions: IV, IP, or oral (PO) administration. The class given is in vivo.
Another data set addresses T2, USP2a (Homo sapiens, UniProt O75604).
T2 construct: endogenous in cells
T2 sequence (O75604 1-605): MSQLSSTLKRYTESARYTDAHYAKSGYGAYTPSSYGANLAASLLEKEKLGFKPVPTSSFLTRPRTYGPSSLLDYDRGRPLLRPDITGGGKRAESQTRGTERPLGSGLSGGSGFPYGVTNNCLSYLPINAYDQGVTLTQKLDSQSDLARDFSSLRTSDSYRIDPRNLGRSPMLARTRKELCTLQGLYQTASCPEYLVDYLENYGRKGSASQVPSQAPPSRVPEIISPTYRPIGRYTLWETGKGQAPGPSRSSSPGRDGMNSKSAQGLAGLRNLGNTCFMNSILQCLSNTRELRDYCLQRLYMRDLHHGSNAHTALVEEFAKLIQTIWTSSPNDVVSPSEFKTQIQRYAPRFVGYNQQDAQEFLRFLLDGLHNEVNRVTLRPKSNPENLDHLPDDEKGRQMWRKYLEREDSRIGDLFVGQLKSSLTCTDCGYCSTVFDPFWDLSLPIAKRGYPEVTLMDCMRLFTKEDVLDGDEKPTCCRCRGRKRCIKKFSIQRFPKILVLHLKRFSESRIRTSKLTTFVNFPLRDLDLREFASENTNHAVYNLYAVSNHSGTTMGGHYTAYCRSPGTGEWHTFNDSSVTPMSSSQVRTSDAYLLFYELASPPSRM
The data set is described as follows: USP2a expression immunoblot in prostate cancer cell line (FIG. 6, FIG. 8). Conditions: 24 h. It counts as cell-based. How it is done:
as §1

The next data set has as its system AR. The data set is described as follows: AR degradation immunoblot in prostate cancer cell line (FIG. 9). The class given is cell-based, human. The note with it: 24 h. How it is done:
as §2

The subject of the next data set is EGFR. The experiment in a line: EGFR degradation immunoblot in NSCLC line H1650 (FIG. 3). The class given is cell-based, human. Conditions: H1650 cells, 24 h. How it is done: Specifically, the NSCLC line H1650, which is driven by a constitutively-activated EGFR, was treated with the indicated concentrations of the PAN-DUB inhibitor SJB-019A and/or the kinase inhibitor Gefitinib. After 24 hours, cells were lysed and the total cellular proteins were electrophoresed by standard PAGE methods. Proteins were immunoblotted and probed with commercially available polyclonal antisera to EGFR or Tubulin. […] Specifically, the NSCLC line H1650, which is driven by a constitutively-activated EGFR, was treated with the indicated concentrations of the PAN-DUB inhibitor SJB-019A and/or the kinase inhibitor Gefitinib. After 24 hours, cells were lysed and the total cellular proteins were electrophoresed by standard PAGE methods. Proteins were immunoblotted and probed with commercially available polyclonal antisera to EGFR or Tubulin. Conclusion: the PAN-DUB inhibitor promotes the degradation of the EGFR, at least in part, by inhibition of USP8 which is expressed in these cells. The dose of the inhibitor that reduce the viability of the NSCLC (less than 0.5 μm, see FIG. 2) correlates with the amount of drug required to degrade EGFR (between 0.2-0.5 μm).

A further data set addresses T3, USP1 (Homo sapiens, UniProt O94782).
T3 construct: endogenous in cells; host or cells: K562 human leukemia cells (lysate)
The experiment in a line: Ub-VS labelling gel shift in K562 cell lysate, anti-USP1 western blot (FIG. 4). The class given is biochemical. Conditions: dose dependent. How it is done: (§3) Human leukemia cells (K652 cell line) express USP8, USP1, and other DUBs. In this experiment, K562 cells were lysed, and total cellular proteins were incubated with the affinity reagent, Ub-VS (vinyl sulfone) which covalently binds to active USPs. As indicated, the addition of Ub-VS causes an upward gel shift of active USP8 and active USP1 (lane 2). […] A western blot is shown, immunoblotted with either anti-USP8, anti-USP1, or anti-HA.
(§4) Human leukemia cells (K652 cell line) express USP8, USP1, and other DUBs. In this experiment, K562 cells were lysed, and total cellular proteins were incubated with the affinity reagent, Ub-VS (vinyl sulfone) which covalently binds to active USPs. As indicated, the addition of Ub-VS causes an upward gel shift of active USP8 and active USP1 (lane 2). […] A western blot is shown, immunoblotted with either anti-USP8, anti-USP1, or anti-HA antibodies.

The target of the next data set is T4, USP8 (Homo sapiens, UniProt P40818).
T4 construct: endogenous in cells; host or cells: K562 human leukemia cells (lysate)
T4 sequence (P40818 1-1118): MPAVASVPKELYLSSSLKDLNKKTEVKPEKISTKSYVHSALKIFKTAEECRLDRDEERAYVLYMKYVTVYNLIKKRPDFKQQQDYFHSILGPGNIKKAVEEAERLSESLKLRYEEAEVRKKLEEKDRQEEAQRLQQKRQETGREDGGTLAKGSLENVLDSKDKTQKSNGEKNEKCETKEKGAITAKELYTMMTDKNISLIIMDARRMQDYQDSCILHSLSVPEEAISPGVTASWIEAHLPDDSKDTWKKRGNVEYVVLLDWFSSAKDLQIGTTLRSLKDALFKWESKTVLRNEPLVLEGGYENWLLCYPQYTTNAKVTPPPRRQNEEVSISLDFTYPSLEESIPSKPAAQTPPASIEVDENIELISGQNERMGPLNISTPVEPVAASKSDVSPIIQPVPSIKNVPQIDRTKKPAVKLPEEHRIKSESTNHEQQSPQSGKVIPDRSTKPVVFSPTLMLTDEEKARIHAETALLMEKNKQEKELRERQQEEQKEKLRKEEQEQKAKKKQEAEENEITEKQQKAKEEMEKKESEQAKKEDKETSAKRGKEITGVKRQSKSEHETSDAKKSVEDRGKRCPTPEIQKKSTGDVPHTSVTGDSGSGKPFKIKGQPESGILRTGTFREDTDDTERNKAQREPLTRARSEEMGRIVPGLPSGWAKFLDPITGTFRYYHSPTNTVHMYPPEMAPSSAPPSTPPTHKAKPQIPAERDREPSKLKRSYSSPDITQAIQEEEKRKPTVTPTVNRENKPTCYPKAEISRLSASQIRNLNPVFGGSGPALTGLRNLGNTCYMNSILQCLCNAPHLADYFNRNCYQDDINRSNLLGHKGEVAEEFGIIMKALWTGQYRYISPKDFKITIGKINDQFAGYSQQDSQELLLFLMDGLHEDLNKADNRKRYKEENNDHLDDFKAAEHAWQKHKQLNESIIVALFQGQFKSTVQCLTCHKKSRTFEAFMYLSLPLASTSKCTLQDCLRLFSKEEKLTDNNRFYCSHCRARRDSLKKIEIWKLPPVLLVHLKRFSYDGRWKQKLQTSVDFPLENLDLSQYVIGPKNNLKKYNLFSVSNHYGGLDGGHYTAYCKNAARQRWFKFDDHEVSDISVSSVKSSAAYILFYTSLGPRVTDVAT
The data set is described as follows: Ub-VS labelling gel shift in K562 cell lysate, anti-USP8 western blot (FIG. 4). The class given is biochemical. Conditions: dose dependent. Here is the method: as §3, §4

The record followed here is US10450281B1, “Compounds and methods for treating cancer” (Dana-Farber Cancer Institute, Inc., priority 2014, dated 2019).

T3 sequence (O94782 whole entry): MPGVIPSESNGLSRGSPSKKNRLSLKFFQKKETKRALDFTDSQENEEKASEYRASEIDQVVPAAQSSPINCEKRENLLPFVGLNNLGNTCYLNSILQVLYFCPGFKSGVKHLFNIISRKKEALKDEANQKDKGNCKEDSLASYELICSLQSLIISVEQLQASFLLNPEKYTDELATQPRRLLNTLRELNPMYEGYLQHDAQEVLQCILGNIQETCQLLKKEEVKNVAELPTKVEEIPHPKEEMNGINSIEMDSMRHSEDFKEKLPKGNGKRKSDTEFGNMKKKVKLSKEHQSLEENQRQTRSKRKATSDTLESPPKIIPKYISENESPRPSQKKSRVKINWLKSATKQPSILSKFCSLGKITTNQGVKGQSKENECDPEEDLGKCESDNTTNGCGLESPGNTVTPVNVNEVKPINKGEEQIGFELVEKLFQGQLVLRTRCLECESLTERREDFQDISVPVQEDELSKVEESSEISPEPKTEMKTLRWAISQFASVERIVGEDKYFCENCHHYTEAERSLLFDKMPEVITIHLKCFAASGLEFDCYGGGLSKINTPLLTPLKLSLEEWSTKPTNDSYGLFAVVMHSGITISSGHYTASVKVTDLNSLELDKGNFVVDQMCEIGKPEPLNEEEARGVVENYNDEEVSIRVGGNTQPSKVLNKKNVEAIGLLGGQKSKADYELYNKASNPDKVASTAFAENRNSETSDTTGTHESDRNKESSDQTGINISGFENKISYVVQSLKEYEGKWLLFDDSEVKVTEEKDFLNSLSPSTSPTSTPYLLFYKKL
T3 sequence (Q8TAF3 whole entry partner): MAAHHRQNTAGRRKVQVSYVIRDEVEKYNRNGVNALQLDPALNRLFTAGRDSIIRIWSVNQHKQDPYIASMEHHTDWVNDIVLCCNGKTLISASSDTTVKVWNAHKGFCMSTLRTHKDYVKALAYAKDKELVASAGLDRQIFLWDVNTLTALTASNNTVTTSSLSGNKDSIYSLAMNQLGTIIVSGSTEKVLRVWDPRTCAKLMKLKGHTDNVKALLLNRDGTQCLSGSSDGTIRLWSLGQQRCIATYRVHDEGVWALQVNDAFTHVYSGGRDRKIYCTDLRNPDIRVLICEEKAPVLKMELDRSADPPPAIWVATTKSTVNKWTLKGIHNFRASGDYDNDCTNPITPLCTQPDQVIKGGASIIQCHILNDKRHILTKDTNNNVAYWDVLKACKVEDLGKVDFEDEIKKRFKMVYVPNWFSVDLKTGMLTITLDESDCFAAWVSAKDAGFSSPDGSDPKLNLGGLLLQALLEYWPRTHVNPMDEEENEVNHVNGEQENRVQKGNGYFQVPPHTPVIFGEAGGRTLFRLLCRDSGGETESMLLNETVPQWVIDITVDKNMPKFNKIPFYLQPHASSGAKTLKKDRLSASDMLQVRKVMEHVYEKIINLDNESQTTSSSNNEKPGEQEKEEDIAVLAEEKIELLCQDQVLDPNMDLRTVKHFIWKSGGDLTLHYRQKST
T1 sequence (O75317 whole entry): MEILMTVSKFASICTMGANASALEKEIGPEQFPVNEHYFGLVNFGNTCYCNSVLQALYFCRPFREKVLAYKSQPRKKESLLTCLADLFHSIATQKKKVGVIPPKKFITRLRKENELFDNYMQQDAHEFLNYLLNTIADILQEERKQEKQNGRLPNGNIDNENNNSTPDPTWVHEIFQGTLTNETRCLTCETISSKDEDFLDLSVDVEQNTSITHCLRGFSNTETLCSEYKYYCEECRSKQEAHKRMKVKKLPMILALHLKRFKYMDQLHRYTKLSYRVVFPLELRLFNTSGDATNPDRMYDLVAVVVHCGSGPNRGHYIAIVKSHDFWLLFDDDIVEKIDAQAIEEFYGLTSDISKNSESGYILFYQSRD
T1 sequence (Q8TAF3 whole entry partner): as the sequence (Q8TAF3 whole entry partner) above
T1 sequence (Q8TBZ3 whole entry partner): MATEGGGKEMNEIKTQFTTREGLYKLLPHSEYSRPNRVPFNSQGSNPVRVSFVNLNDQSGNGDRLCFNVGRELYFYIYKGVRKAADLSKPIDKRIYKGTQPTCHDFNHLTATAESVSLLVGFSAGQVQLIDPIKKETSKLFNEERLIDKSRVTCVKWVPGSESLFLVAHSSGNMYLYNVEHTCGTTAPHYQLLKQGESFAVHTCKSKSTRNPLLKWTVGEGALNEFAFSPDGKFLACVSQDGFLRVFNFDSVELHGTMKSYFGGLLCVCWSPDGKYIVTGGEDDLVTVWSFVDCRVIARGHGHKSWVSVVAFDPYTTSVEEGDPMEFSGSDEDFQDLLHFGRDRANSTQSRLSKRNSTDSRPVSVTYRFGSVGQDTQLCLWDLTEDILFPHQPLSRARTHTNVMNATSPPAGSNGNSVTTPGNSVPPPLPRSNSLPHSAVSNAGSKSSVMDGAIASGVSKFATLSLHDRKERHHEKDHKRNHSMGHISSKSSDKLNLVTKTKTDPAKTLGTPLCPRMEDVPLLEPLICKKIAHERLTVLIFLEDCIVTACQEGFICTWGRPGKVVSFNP

As for `O=C1c2ccccc2C(=O)c2oc(-c3cccnc3)nc21` [019A], in data set [1], the “dose of the inhibitor that reduces the viability of the prostate cancer cells” value lay within 0.5 to 0.8 μm and the “drug concentration range for killing of prostate cancer cells” value is “submicromolar range”. In addition, the “dose of the inhibitor that reduces the viability of the NSCLC” value in [2] (24 h incubation) is given as “less than 0.5 μm”. For the same compound, the “selective killing (cytotoxicity) of lung cancer cell lines” value in data set [2] (cell lines which express activated EGF-receptor, 24 h) is reported as “selective killing (cytotoxicity) for lung cancer cell lines which express activated EGF-receptor”. Further, in the data set with Cyclin D1, the “amount of drug required to degrade cyclin D1” value lay in the range of 0.5 to 0.8 μm. Also, the “effect on USP12 protein” value at USP12 is “degrades USP12 protein”. The “serum concentrations after administration” value in data set [3] was “inhibitory serum concentrations of 019A can be achieved”. Also, the “effect on USP2a expression” value on USP2a was “does not affect USP2a expression”. Moreover, the “amount of drug required to degrade AR” value in the data set on AR fell in the range of 0.6 to 0.8 μm. The “amount of drug required to degrade EGFR” value in the data set with EGFR is 0.2-0.5 μm.
With Ub-aldehyde, the “inhibition of Ub-VS binding to active USP1” value at USP1 was “blocks the upward shift”. Moreover, the “inhibition of Ub-VS binding to active USP8” value on USP8 is recorded as “blocks the upward shift”.
